Results on 4 compounds are retold here after patent US20240124432A1, “HERBICIDAL COMPOUNDS” (SYNGENTA CROP PROTECTION AG, priority 2020, published 2024).

Holding throughout (assay type): in vivo
For test [1], the system named is AMAPA. The experiment in a line: Pre-emergence biological efficacy. To be noted: Amaranthus palmeri, 312 h, evaluated after 13 days, read-out: damage to plant (100=total damage to plant; 0=no damage to plant). An outline of the steps:
(§1)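 Sow in pots → 1 d glasshouse, 24/19 °C, 16 h light → spray compound (IF50/acetone formulation, 0.2% Genapol XO80 diluent) → grow 24/18 °C, 15 h light, 50% RH, water 2×/day → score damage 0–100 at 13 d.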

Test [2] concerns ECHCG. Nature of the test: Pre-emergence biological efficacy. To be noted: Echinochloa crus-galli, 312 h, evaluated after 13 days, read-out: damage to plant (100=total damage to plant; 0=no damage to plant). The gist of the method:
as §1

Test [3] relates to EPHHL. The experiment in a line: Pre-emergence biological efficacy. To be noted: Euphorbia heterophylla, 312 h, evaluated after 13 days, read-out: damage to plant (100=total damage to plant; 0=no damage to plant). The gist of the method: as §1
The subject of test [4] is IPOHE. The experiment in a line: Pre-emergence biological efficacy. To be noted: Ipomoea hederacea, 312 h, evaluated after 13 days, read-out: damage to plant (100=total damage to plant; 0=no damage to plant). An outline of the steps:
as §1

Test [5] has as its system LOLPE. Nature of the test: Pre-emergence biological efficacy. To be noted: Lolium perenne, 312 h, evaluated after 13 days, read-out: damage to plant (100=total damage to plant; 0=no damage to plant). An outline of the steps:
as §1

Test [6] relates to SETFA. The experiment in a line: Pre-emergence biological efficacy. To be noted: Setaria faberi, 312 h, evaluated after 13 days, read-out: damage to plant (100=total damage to plant; 0=no damage to plant). The gist of the method:
as §1

Test [7] relates to AMAPA. Nature of the test: Post-emergence biological efficacy. To be noted: Amaranthus palmeri, 312 h, evaluated after 13 days, read-out: damage to plant (100=total damage to plant; 0=no damage to plant). An outline of the steps:
(§2)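 Damage was rated 13 days after treatment, from 0 (none) to 100 (total). Test compounds, formulated in IF50 and diluted with 0.2% Genapol XO80 to final dose, were sprayed on glasshouse plants raised for 14 days from seed.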

Test [8] deals with CHEAL. Nature of the test: Post-emergence biological efficacy. To be noted: Chenopodium album, 312 h, evaluated after 13 days, read-out: damage to plant (100=total damage to plant; 0=no damage to plant). An outline of the steps:
as §2

Test [9] relates to DIGSA. The experiment in a line: Post-emergence biological efficacy. To be noted: Digitaria sanguinalis, 312 h, evaluated after 13 days, read-out: damage to plant (100=total damage to plant; 0=no damage to plant). An outline of the steps:
as §2

The test system of test [10] is ECHCG. Nature of the test: Post-emergence biological efficacy. To be noted: Echinochloa crus-galli, 312 h, evaluated after 13 days, read-out: damage to plant (100=total damage to plant; 0=no damage to plant). An outline of the steps: as §2
Test [11] concerns ELEIN. The experiment in a line: Post-emergence biological efficacy. To be noted: 312 h, evaluated after 13 days, read-out: damage to plant (100=total damage to plant; 0=no damage to plant). The gist of the method:
as §2

Test [12] relates to EPHHL. Nature of the test: Post-emergence biological efficacy. To be noted: Euphorbia heterophylla, 312 h, evaluated after 13 days, read-out: damage to plant (100=total damage to plant; 0=no damage to plant). An outline of the steps: as §2
Test [13] deals with IPOHE. Nature of the test: Post-emergence biological efficacy. To be noted: Ipomoea hederacea, 312 h, evaluated after 13 days, read-out: damage to plant (100=total damage to plant; 0=no damage to plant). An outline of the steps: as §2
The test system of test [14] is LOLPE. The experiment in a line: Post-emergence biological efficacy. To be noted: Lolium perenne, 312 h, evaluated after 13 days, read-out: damage to plant (100=total damage to plant; 0=no damage to plant). The gist of the method:
as §2

Test [15] concerns SETFA. Nature of the test: Post-emergence biological efficacy. To be noted: Setaria faberi, 312 h, evaluated after 13 days, read-out: damage to plant (100=total damage to plant; 0=no damage to plant). The gist of the method:
as §2

`CCOC(=O)C1(C)CC(c2cc(-c3ncc(F)cc3Cl)c(F)cc2Cl)=NO1` (stereo not drawn) [Compound 1-331, Ethyl 3-[2-chloro-5-(3-chloro-5-fluoro-2-pyridyl)-4-fluoro-phenyl]-5-methyl-4H-isoxazole-5-carboxylate]: the pest or weed control at 250 g/ha in [1] was determined as 100%; in test [2], 90%; in test [3] it was 100%; in test [4], 60%; in test [5], 80%; in [6] it was 100%. The pest or weed control at 250 g/ha in test [7], in test [8], in test [9], in [10], in test [11] and in test [12] was 100% each time. Also, the pest or weed control at 250 g/ha in test [13], in test [14] and in [15] was 100% throughout.

As to `CCOC(=O)C1(C)CC(c2cc(-c3ncc(C#N)cc3Cl)c(F)cc2Cl)=NO1` (stereo not drawn) [Compound 1-607, Ethyl 3-[2-chloro-5-(3-chloro-5-cyano-2-pyridyl)-4-fluoro-phenyl]-5-methyl-4H-isoxazole-5-carboxylate], the pest or weed control at 250 g/ha in test [1] amounted to 100%; in [2], 70%; in [3] it was 50%; in test [4] it was 30%; in test [5], 20%; in test [6], 10%. For the same compound, the pest or weed control at 250 g/ha in test [7] came to 100%; in test [8], 100%; in test [9], 70%; in [10] it was 40%; in [11], 60%; in [12], 100%. For the same compound, the pest or weed control at 250 g/ha stood at 100% in [13], 70% in test [14] and 80% in test [15].

As to `CCOC(=O)C1(C)CC(c2cc(-c3cnc4c(c3)OC(F)(F)O4)c(F)cc2Cl)=NO1` (stereo not drawn) [Compound 1-451, Ethyl 3-[2-chloro-5-(2,2-difluoro-[1,3]dioxolo[4,5-b]pyridin-6-yl)-4-fluoro-phenyl]-5-methyl-4H-isoxazole-5-carboxylate], the pest or weed control at 250 g/ha amounted to 90% in test [1]; 40% in [2]; 80% in test [3]; 50% in [4]; 40% in [5]; 40% in [6]. For the same compound, the pest or weed control at 250 g/ha in test [7], in test [8], in test [9], in test [10], in [11] and in [12] was 100% each time. The pest or weed control at 250 g/ha in [13], in test [14] and in test [15] was 100% each time.

As to `CCOC(=O)C1(C)CC(c2cc(-c3ccccn3)c(F)cc2Cl)=NO1` (stereo not drawn) [Compound 1-139, Ethyl 3-[2-chloro-4-fluoro-5-(2-pyridyl)phenyl]-5-methyl-4H-isoxazole-5-carboxylate], the pest or weed control at 250 g/ha in [1], in test [2], in test [3], in test [4], in test [5] and in test [6] was 0% throughout. Further, the pest or weed control at 250 g/ha in test [7] stood at 0%; in test [8], 0%; in test [9] it was 0%; in test [10] it was 0%; in [11], 0%; in [12], 10%. Also, the pest or weed control at 250 g/ha in [13] was 20%; in [14], 0%; in test [15], 10%.
